Consider 2 compounds from patent publication US20060193777A1, “Method of screening compounds for potential efficacy for the treatment of signs of aging” (priority 2005, published 2006).

The structures appear in SMILES notation.

For experiment [1], the system named is Human keratinocytes. Kind of experiment: Electric Cell-Substrate Impedance Sensing (ECIS) capacitance contraction of human keratinocytes. Format: cell-based. Conditions: for Electrical Capacitance Contraction of Human Keratinocytes (AUC of capacitance, Mean ± Std Dev): integrated over 5 hrs, 40,000 Hz, pH 7.2-7.3; for contraction or shrinkage of keratinocyte cell area as measured by keratinocyte capacitance (in words): compared to media treatment alone. The source says: Electrical changes due to the presence of a cell layer can be used to calculate cell morphological parameters including the barrier function of the cell layer (the spacing between the ventral side of the cell and the substratum) and the cell membrane capacitance (Giaever and Keese, Proceedings of National Academy of Sciences 88, 7896, 1991).
Current flowing between a reference electrode, onto which cells or cell cultures may be attached, and a larger counter electrode using normal culture medium as the electrolyte can be used to detect changes in cell morphological parameters. In the absence of cells on the electrode, the current flows unrestrained from the surface of the electrodes. In the presence of cells attached and spread upon the electrode, the current must now flow in the spaces under and between the cells, as the cell membrane act as insulators.
The electrical changes of living, viable cells can be sampled rapidly, in real time, over an extended period of time, and the measurements are the measurement is non-invasive. An example of this technology is the Electric Cell-substrate Impedance Sensing System (ECIS) available from Applied Biophysics (Troy, N.Y.). Electrical changes in keratinocyte morphological parameters can be used to identify novel compounds for anti-aging benefits.
Human keratinocytes and Epilife culture media (Cascade Biologics, Portland, Oreg.) were cultured at 37° C. in a humidified atmospheres of 5% CO2/95% air. Electric Cell-substrate Impedance Sensing System (ECIS) electrode arrays (Applied Biophysics , Troy, N.Y.) were coated with 0.01 mg/ml Laminin V (Sigma Aldirch, St Louis, Mo.) in sterile Phosphate Buffered Saline (Gibco Life Sciences, San Diego, Calif.). Human keratinocytes were prepared at a density of 0.125×10^6 cells/mL in Epilife culture media. Human keratinocytes were plated at 5.0×10^4 cells/electrode well and cultured at 37° C. in a humidified atmospheres of 5% CO2/95% O2 for 24-48 hrs. Capacitance changes (in nanofarads, nF) of keratinocytes were measured using a Electric Cell-substrate Impedance Sensing System (ECIS) Model 1600R (Applied Biophysics, Troy, N.Y.) using the method of Wegener and co-workers (Wegener J, Keese C R, Giaever I, Exp Cell Res. 259:158-166, 2000) at a frequency of 40,000 Hz. Capacitance readings are inversely related to the contact area of a cell onto the ECIS electrode array, the greater the cell area contacting the electrode the smaller the capacitance readings (Wegener J, Keese C R, Giaever I, Exp Cell Res. 259:158-166, 2000). Conversely as a cell contracts or shrinks, the contact area of the cell onto the ECIS electrode array decreases, resulting in an increase in the capacitance readings. […] These calculations are based on the trapezoid theorem. The AUC of the media curve was subtracted from the compound treated group. A positive AUC difference indicates keratinocyte contraction, the greater the AUC difference the greater the amount of keratinocyte contraction. […] DMAE is a known skin-firming agent. The compounds were diluted into Hank's Buffered Salt Solution (HBSS; Gibco Life Sciences, San Diego, Calif.) and the pH of the solution adjusted to between pH 7.2-7.3. The pH of the HBSS without compounds (“Media Alone”) was also adjusted to pH 7.2-7.3.

Experiment [2] has as its system Human keratinocytes. Kind of experiment: Visual contraction of human keratinocytes by real time visual microscopy (cell area). Format: cell-based. Here is the method: Human keratinocytes and Epilife culture media (Cascade Biologics, Portland, Oreg.) were cultured at 37° C. in a humidified atmospheres of 5% CO2/95% air. Glass Cover Slides (Applied Biophysics, Troy, N.Y.) were coated with 0.01 mg/ml Laminin V (Sigma Aldirch, St Louis, Mo.) in sterile Phosphate Buffered Saline (Gibco Life Sciences, San Diego, Calif.). Human keratinocytes were prepared at a density of 0.125×10^6 cells/mL in Epilife culture media. Human keratinocytes were plated at 3.75×10^4 cells/well on a 6 well plate containing Laminin coated coverslips and cultured at 37° C. in a humidified atmospheres of 5% CO2/95% O2 for 48 hrs. Individual coverslips were transferred to a open bath imaging chamber (Warner Instruments, Hamden, Conn.) mounted on a Leica inverted microscope (Leitz DM1L) with an attached CCD camera. Cells were perfused with Hank's Buffered Salt Solution (HBSS; Gibco Life Sciences, San Diego, Calif.) at flow rate of 1 ml/min using a peristaltic pump (Cole Parmer, Vernon Hills, Ill.). […] The pH of the HBSS without DMAE or THPED. (“Media Alone”) was also adjusted to pH 7.2-7.3. […] Cell area was determined using Scion Image software (Version 4.0.2), and reductions in cell area were reported as the ratio of cell area after treatment to cell area prior to treatment

For experiment [3], the system named is Human keratinocytes. Kind of experiment: Reversal of visual contraction of human keratinocytes after removal of DMAE. Format: cell-based. Particulars: for Reversal of Visual Contraction of Human Keratinocytes (Mean ± Std Dev): 0.1% DMAE. Here is the method:
Human keratinocytes and Epilife culture media (Cascade Biologics, Portland, Oreg.) were cultured at 37° C. in a humidified atmospheres of 5% CO2/95% air. Glass Cover Slides (Applied Biophysics, Troy, N.Y.) were coated with 0.01 mg/ml Laminin V (Sigma Aldirch, St Louis, Mo.) in sterile Phosphate Buffered Saline (Gibco Life Sciences, San Diego, Calif.). Human keratinocytes were prepared at a density of 0.125×10^6 cells/mL in Epilife culture media. Human keratinocytes were plated at 3.75×10^4 cells/well on a 6 well plate containing Laminin coated coverslips and cultured at 37° C. in a humidified atmospheres of 5% CO2/95% O2 for 48 hrs. Individual coverslips were transferred to a open bath imaging chamber (Warner Instruments, Hamden, Conn.) mounted on a Leica inverted microscope (Leitz DM1L) with an attached CCD camera. Cells were perfused with Hank's Buffered Salt Solution (HBSS; Gibco Life Sciences, San Diego, Calif.) at flow rate of 1 ml/min using a peristaltic pump (Cole Parmer, Vernon Hills, Ill.). […] The pH of the HBSS without DMAE or THPED. (“Media Alone”) was also adjusted to pH 7.2-7.3. […] Images were collected of a field of keratinocytes containing 10-20 cells at 0, 10 and 20 minutes of treatment using ImagePro software. Cell area was determined using Scion Image software (Version 4.0.2), and reductions in cell area were reported as the ratio of cell area after treatment to cell area prior to treatment
In the following example, keratinocytes were prepared and plated on coverslips as described above.

For experiment [4], the system named is granular cells in the viable epidermis. Put plainly: Confocal reflectance microscopy of upper inner arm skin, cell size decrease after product application. Format: in vivo, human. Conditions: two microliters/cm^2, imaged over 20 minutes, eight volunteers, gel with 3% DMAE. Here is the method:
A study was conducted using a VivaScope 1000 Confocal Reflectance Microscope from Lucid (Rochester, N.Y.) and a water immersion objective of NA 1.2-0.7 (60×). Sites on the upper inner arm were imaged immediately after product application (two microliters/cm^2 was applied) and every 2 minutes for an interval of 20 minutes. […] The confocal microscope was set up to acquire 16 frames from the top of the stratum corneum in steps of 3 micrometers, allowing observation of changes in cell size/morphology within a 48 micrometer depth region. As described by Rajadhyaksha et al., J. Invest. Dermatol. 113(3):293-303 (1999), the size of the cells varies (in diameter) with skin depth from 25-30 micromerters in the granular cells to 15-25 micrometers in spinous cells layers. In this study, cells were observed approximately 21 micrometers from the top of the stratum corneum, primarily granular cells, or at the top of the spinous cells. The exact same cells were compared in the initial maps and in the final maps in order to avoid any interference of cell size differences with the depth as described by Rajadhyaksha et al. After image acquisition, we used an enhancement routine developed in IDL® Software (Research System Inc., Boulder, Colo.) and the cells size area were measured using Image Pro Plus® (Media Cybernetics Inc., Silver Springs, Md.). […]

In the case of `CN(C)CCO` [DMAE, 2-(dimethylamino)ethanol], the “Electrical Capacitance Contraction of Human Keratinocytes (AUC of capacitance, Mean ± Std Dev)” value with Human keratinocytes [1] (0.01% V/V) is 22.82 ± 4.1; in the experiment on Human keratinocytes [1] (0.05% V/V), 28.8 ± 5.6; in the experiment on Human keratinocytes [1] (0.1% V/V), 36.1 ± 5.9. For the same compound, the “contraction or shrinkage of keratinocyte cell area as measured by keratinocyte capacitance (in words)” value with Human keratinocytes [1] is listed as “dose-dependent contraction or shrinkage”. In the experiment with Human keratinocytes [2], the “contraction or shrinkage of keratinocyte cell area as determined by keratinocyte surface area (in words)” value is “dose-dependent contraction or shrinkage”. Besides, the “Visual Contraction of Human Keratinocytes (reduction in cell area, Mean ± Std Dev)” value in the experiment on Human keratinocytes [2] (0.01%, 10 Min) is on record as 4.82% ± 0.68%; in the experiment with Human keratinocytes [2] (0.01%, 20 Min) it was 6.22% ± 0.95%; with Human keratinocytes [2] (0.05%, 10 Min) it was 16.40% ± 2.58%; with Human keratinocytes [2] (0.05%, 20 Min), 18.04% ± 3.09%; with Human keratinocytes [2] (0.1%, 10 Min) it was 23.61% ± 3.03%; in the experiment with Human keratinocytes [2] (0.1%, 20 Min), 33.83% ± 2.96%. Also, the “Reversal of Visual Contraction of Human Keratinocytes (Mean ± Std Dev)” value in the experiment with Human keratinocytes [3] (20 Min Treatment with DMAE) was 32.17% ± 2.65%; in the experiment on Human keratinocytes [3] (30 Min After Removal of DMAE), 24.25% ± 3.23%; in the experiment with Human keratinocytes [3] (60 Min After Removal of DMAE) it was 16.546% ± 3.89%. Moreover, the “reversibility of keratinocyte contraction (in words)” value in the experiment with Human keratinocytes [3] (after removal of DMAE) was “reversal of the DMAE-induced keratinocyte contraction”. In addition, the “Percentage of Decreases in Cell Size” value in experiment [4] came out at 15%.

For the compound `CC(O)CN(CCN(CC(C)O)CC(C)O)CC(C)O` (stereo not drawn) [THPED, N,N,N′,N′-Tetrakis(2-hydroxypropyl)ethylenediamine], the “Electrical Capacitance Contraction of Human Keratinocytes (AUC of capacitance, Mean ± Std Dev)” value with Human keratinocytes [1] (0.01% V/V) amounted to 29.2 ± 3.2; in the experiment with Human keratinocytes [1] (0.05% V/V), 35.1 ± 5.3; with Human keratinocytes [1] (0.1% V/V), 44.5 ± 9.1. Also, the “contraction or shrinkage of keratinocyte cell area as measured by keratinocyte capacitance (in words)” value with Human keratinocytes [1] is given as “dose-dependent contraction or shrinkage”. Also, the “contraction or shrinkage of keratinocyte cell area as determined by keratinocyte surface area (in words)” value with Human keratinocytes [2] was “dose-dependent contraction or shrinkage”. Also, the “Visual Contraction of Human Keratinocytes (reduction in cell area, Mean ± Std Dev)” value is 32.9% ± 11.3% in the experiment with Human keratinocytes [2] (0.1%, 2 Min); 37.9% ± 10.7% in the experiment on Human keratinocytes [2] (0.1%, 10 Min); 47.3% ± 12.7% with Human keratinocytes [2] (0.1%, 20 Min).
